Measured values reported in ChEMBL document CHEMBL1155491, “Acylurea connected straight chain hydroxamates as novel histone deacetylase inhibitors: Synthesis, SAR, and in vivo antitumor activity” (Bioorg Med Chem Lett, 2010).
≈ marks a conversion by molar mass, not a printed value. Calls of active or inactive are those of the source. The calls are words filed in the database; no cut-off is given here.

Key:
[1] = molecular target: T1, Polyamine deacetylase HDAC10 (Homo sapiens, UniProt Q969S8); assay: Inhibition of HDAC10
T1 sequence (Q969S8 whole entry): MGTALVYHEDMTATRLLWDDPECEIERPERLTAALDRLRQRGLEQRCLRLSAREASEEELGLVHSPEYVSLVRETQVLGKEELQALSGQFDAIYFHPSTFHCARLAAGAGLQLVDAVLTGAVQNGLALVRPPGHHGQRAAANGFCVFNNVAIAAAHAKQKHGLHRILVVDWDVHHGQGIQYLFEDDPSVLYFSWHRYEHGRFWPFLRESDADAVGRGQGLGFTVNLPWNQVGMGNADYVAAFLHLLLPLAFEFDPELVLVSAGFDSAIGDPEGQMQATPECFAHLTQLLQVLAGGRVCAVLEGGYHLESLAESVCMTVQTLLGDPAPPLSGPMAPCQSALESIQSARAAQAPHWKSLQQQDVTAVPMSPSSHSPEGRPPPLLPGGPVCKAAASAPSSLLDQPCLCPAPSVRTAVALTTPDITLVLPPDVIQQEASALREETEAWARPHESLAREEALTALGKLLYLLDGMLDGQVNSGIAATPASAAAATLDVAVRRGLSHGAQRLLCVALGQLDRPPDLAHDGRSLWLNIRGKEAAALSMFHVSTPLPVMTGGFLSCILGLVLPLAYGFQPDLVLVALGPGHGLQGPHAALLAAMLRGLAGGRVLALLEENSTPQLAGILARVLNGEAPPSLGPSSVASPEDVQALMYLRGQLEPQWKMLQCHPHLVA

Histone deacetylase 9 = Histone deacetylase 9 (Homo sapiens, UniProt Q9UKV0); assay: Inhibition of HDAC9
Histone deacetylase 7 = Histone deacetylase 7 (Homo sapiens, UniProt Q8WUI4); assay: Inhibition of HDAC7
[2] = molecular target: T2, Protein deacetylase HDAC6 (Homo sapiens, UniProt Q9UBN7); assay: Inhibition of HDAC6
T2 sequence (Q9UBN7 whole entry): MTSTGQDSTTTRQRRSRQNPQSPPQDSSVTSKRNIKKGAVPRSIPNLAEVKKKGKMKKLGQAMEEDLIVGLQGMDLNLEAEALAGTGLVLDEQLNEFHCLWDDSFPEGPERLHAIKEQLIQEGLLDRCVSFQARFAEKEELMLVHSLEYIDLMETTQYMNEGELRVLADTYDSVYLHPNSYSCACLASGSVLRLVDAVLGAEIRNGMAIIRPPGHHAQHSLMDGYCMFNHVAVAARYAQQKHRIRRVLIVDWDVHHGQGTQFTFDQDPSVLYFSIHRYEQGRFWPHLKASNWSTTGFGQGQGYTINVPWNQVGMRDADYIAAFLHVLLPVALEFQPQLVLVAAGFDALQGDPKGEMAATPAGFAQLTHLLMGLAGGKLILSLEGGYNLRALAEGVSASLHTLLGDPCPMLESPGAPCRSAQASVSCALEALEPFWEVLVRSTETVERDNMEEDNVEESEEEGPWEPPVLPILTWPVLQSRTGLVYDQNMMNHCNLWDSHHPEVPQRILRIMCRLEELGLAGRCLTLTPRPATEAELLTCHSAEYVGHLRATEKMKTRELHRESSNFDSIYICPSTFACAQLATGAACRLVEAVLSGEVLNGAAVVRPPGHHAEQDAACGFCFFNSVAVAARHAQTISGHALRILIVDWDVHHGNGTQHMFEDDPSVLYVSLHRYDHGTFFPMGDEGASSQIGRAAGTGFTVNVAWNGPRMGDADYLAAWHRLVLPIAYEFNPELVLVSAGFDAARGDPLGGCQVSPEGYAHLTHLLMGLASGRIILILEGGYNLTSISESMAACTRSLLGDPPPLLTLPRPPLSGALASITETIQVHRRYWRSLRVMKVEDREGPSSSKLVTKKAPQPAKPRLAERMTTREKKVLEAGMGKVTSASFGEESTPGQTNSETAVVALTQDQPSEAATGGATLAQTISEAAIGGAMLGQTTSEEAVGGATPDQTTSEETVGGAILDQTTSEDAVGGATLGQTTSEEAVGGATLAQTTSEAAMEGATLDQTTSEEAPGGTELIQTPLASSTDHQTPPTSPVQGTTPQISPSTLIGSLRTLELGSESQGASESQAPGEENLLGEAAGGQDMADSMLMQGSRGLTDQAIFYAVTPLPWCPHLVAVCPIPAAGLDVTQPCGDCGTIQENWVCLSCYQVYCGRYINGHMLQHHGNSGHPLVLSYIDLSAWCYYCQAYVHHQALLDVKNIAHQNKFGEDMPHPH

Histone deacetylase 1 [3] = molecular target: T3, Histone deacetylase 1 (Homo sapiens, UniProt Q13547)
[4] = Solubility at pH 7; type: physicochemical; details: buffer
Histone deacetylase 4 = Histone deacetylase 4 (Homo sapiens, UniProt P56524); assay: Inhibition of HDAC4
Histone deacetylase 5 = Histone deacetylase 5 (Homo sapiens, UniProt Q9UQL6); assay: Inhibition of HDAC5
[5] = Half life in human liver microsome; type: ADME; details: liver microsomes
A2780 = assay: Antiproliferative activity against human A2780 cells; type: functional, cell-based
Histone deacetylase 11 = molecular target: T4, Histone deacetylase 11 (Homo sapiens, UniProt Q96DB2); assay: Inhibition of HDAC11
T4 sequence (Q96DB2 whole entry): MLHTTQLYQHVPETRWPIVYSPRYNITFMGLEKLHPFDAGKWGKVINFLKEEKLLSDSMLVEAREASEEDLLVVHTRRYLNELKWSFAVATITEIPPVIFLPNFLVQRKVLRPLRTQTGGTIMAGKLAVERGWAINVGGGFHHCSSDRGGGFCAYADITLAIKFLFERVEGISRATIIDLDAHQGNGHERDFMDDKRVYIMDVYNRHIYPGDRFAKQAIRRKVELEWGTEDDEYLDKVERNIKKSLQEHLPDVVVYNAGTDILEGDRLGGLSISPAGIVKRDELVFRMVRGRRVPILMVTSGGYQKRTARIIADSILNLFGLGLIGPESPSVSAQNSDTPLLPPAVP

[6] = Half life in mouse liver microsome; type: ADME; details: liver microsomes
HCT-116 = assay: Antiproliferative activity against human HCT116 cells; type: functional, cell-based
[7] = Octanol-water distribution coefficient, log D of the compound; type: physicochemical
Histone deacetylase 1 [8] = molecular target: T3, Histone deacetylase 1; remark: listed apart in the source
PC-3 = assay: Antiproliferative activity against human PC3 cells; type: functional, cell-based
[9] = Half life in rat liver microsome; type: ADME; details: liver microsomes
Histone deacetylase 3 = Histone deacetylase 3 (Homo sapiens, UniProt O15379); assay: Inhibition of HDAC3
[10] = Thermodynamic solubility at pH 7.4; type: physicochemical; details: buffer, read-out: Therm_solubility
Histone deacetylase 1 [11] = molecular target: T3, Histone deacetylase 1; assay: Inhibition of HDAC1 in human COLO205 cells assessed as induction of histone H3 acetylation at 10 uM by Western-immuno blotting; type: cell-based; details: COLO 205
Histone deacetylase 8 = molecular target: T5, Histone deacetylase 8 (Homo sapiens, UniProt Q9BY41); assay: Inhibition of HDAC8
T5 sequence (Q9BY41 whole entry): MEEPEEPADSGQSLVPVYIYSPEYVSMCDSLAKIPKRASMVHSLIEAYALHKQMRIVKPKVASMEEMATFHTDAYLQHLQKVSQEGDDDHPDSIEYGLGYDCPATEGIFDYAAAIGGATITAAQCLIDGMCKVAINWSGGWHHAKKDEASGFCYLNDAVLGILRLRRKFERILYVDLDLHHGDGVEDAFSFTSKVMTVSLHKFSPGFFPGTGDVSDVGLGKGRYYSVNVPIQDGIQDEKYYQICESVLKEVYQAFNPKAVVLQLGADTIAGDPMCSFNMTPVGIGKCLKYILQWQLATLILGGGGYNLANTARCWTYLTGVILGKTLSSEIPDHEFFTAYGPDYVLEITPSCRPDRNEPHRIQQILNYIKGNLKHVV

Histone deacetylase 2 = Histone deacetylase 2 (Homo sapiens, UniProt Q92769)
Sequence of Histone deacetylase 2 (Q92769 whole entry): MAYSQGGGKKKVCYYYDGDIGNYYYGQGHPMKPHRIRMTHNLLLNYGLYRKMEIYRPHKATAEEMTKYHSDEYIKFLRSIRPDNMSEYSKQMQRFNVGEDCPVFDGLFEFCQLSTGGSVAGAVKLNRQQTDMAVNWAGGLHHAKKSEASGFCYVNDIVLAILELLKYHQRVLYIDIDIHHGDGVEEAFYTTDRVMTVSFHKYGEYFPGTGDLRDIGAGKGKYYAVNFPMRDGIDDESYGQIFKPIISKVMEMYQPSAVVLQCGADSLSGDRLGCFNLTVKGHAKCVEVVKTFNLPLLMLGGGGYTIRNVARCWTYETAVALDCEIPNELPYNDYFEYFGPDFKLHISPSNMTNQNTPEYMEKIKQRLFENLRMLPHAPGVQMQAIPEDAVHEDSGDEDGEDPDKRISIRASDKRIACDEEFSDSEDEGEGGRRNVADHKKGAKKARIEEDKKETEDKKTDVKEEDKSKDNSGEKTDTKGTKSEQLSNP

T3 sequence (Q13547 whole entry): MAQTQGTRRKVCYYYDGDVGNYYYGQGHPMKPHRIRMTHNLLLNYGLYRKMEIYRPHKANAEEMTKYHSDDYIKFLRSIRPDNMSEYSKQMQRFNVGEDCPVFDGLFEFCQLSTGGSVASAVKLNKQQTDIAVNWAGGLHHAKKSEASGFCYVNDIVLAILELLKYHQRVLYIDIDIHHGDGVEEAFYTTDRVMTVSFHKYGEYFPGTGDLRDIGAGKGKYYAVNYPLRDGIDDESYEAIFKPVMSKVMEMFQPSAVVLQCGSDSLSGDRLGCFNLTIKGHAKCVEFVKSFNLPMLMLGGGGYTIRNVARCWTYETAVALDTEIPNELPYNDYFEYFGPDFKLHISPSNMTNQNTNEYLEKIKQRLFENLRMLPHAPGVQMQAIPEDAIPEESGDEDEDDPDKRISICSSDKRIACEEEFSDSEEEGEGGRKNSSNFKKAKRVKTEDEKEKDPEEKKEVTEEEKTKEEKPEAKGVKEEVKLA
Sequence of Histone deacetylase 4 (P56524 whole entry): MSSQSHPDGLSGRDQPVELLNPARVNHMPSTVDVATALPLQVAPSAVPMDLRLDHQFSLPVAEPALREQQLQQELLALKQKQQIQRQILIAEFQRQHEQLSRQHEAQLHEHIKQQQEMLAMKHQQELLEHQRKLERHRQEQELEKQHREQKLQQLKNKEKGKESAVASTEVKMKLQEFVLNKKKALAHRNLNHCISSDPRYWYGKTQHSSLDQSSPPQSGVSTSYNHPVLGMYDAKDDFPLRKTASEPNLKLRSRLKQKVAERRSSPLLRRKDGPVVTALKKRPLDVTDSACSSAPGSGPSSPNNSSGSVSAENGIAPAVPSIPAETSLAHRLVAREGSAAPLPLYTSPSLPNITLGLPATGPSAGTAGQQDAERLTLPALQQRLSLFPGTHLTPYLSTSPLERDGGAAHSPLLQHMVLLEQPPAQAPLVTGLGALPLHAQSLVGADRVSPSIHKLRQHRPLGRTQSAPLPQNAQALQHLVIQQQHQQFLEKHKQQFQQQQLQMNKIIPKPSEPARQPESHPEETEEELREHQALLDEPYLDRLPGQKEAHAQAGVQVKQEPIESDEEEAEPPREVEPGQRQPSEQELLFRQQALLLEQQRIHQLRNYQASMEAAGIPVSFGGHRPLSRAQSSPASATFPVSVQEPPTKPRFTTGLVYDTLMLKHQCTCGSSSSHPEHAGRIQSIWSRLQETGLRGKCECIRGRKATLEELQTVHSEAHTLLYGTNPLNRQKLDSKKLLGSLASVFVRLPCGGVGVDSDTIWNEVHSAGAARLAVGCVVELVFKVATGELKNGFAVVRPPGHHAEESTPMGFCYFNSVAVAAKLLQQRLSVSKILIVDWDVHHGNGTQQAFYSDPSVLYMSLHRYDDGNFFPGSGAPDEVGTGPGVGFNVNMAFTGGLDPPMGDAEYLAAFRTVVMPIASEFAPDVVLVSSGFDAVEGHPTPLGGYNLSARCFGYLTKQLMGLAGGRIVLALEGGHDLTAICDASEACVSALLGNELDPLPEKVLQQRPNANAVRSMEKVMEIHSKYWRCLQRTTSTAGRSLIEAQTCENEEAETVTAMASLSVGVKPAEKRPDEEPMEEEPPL
Sequence of Histone deacetylase 9 (Q9UKV0 whole entry): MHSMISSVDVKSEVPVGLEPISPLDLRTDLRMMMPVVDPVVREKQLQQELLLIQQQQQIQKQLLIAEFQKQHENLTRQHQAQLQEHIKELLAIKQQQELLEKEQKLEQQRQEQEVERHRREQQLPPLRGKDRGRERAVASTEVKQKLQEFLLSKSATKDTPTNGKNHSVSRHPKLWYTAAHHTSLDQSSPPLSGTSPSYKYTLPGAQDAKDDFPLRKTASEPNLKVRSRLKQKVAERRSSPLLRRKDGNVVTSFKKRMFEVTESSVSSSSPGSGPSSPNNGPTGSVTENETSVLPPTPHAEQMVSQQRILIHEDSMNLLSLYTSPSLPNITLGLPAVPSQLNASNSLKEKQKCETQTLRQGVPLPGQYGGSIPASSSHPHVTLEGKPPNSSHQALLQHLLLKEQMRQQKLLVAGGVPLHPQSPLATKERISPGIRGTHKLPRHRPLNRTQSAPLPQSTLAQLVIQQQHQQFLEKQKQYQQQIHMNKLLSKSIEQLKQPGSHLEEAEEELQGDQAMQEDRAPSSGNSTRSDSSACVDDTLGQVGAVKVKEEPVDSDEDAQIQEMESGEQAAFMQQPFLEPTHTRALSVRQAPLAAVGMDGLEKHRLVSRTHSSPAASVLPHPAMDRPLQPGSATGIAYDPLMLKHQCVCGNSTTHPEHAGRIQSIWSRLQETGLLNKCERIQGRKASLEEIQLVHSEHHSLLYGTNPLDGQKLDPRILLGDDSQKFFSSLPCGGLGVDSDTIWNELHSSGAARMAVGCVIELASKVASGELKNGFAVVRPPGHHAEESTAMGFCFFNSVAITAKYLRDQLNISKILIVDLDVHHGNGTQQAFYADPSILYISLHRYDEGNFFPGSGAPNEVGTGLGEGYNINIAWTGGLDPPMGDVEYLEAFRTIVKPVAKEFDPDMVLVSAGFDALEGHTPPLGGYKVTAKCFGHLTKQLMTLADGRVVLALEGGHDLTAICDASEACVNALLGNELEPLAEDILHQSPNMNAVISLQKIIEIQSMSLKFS
Sequence of Histone deacetylase 7 (Q8WUI4 whole entry, looked up): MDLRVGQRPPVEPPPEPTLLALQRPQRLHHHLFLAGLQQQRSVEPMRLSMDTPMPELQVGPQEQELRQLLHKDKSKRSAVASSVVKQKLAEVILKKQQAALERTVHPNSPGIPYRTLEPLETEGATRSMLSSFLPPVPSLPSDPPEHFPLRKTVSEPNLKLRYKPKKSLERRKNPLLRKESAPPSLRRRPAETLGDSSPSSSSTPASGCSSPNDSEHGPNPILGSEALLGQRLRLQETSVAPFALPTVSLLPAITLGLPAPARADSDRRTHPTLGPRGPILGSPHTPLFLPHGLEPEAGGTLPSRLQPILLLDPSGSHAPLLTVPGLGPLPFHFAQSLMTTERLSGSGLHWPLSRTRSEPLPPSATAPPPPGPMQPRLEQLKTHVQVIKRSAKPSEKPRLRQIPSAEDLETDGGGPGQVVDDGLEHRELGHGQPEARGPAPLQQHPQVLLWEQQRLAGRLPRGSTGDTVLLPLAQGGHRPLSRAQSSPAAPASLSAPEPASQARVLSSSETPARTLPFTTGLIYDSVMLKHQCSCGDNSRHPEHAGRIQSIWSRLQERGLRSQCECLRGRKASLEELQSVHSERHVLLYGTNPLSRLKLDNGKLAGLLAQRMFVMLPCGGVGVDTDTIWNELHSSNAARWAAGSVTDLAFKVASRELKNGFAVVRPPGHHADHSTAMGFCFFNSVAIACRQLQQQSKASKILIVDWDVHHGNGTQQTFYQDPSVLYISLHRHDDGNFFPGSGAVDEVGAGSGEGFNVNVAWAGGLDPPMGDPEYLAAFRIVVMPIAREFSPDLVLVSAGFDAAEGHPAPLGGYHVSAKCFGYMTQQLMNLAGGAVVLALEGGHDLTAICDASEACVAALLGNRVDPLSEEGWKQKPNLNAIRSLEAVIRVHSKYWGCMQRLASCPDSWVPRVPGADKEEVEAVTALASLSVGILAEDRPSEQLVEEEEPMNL
Sequence of Histone deacetylase 3 (O15379 whole entry): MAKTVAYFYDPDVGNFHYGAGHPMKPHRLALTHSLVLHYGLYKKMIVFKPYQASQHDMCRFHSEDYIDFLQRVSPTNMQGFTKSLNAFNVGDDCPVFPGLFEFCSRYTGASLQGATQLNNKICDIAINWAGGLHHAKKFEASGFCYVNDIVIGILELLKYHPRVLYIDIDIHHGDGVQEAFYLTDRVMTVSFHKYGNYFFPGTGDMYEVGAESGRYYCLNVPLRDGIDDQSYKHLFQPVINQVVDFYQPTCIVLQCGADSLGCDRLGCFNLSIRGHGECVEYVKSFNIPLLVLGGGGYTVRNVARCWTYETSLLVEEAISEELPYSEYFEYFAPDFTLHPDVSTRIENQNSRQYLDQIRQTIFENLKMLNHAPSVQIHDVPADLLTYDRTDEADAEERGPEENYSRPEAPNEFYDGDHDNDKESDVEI

- Ki [1]: 0.009 µM
- Ki (Histone deacetylase 9): 0.006 µM
- Ki (Histone deacetylase 7): 0.031 µM
- Ki [2]: 0.008 µM
- IC50 (Histone deacetylase 1 [3]): 0.013 µM
- Ki (Histone deacetylase 1 [3]): 0.008 µM
- solubility [4]: 51 µM (≈ 19 µg/mL)
- Ki (Histone deacetylase 4): 0.006 µM
- Ki (Histone deacetylase 5): 0.013 µM
- half-life [5]: > 60 min
- IC50 (A2780): 0.45 µM
- Ki (Histone deacetylase 11): 0.009 µM
- half-life [6]: 31 min
- IC50 (HCT-116): 0.6 µM
- logD [7]: 1.72
- IC50 (Histone deacetylase 1 [8]): 0.87 µM
- IC50 (PC-3): 0.66 µM
- half-life [9]: 53 min
- Ki (Histone deacetylase 3): 0.008 µM
- solubility thermodynamic [10]: 0.015 mg/mL (≈ 40.3 µM)
- Activity (Histone deacetylase 1 [11]): Active
- Ki (Histone deacetylase 8): 0.315 µM
- Ki (Histone deacetylase 2): 0.012 µM
Compound: O=C(CCCCCNC(=O)NC(=O)c1ccc(Br)cc1)NO
